Laboratory results reported in patent US20250295790A1, “LECTIN-TARGETING CONJUGATES” (Helmholtz-Zentrum für Infektionsforschung GmbH, priority 2021, published 2025).
Entries after “also recorded” stand apart in the source; their conditions may differ. Where no end group is shown, it is not given here. [ ]: non-standard residue; d: D form. Nba = nitrobenzyl amine (quencher); 2Abz = Nc1ccccc1C(=O)O

Assays:
[1] = tested on: T1, LecA-targeted prodrug 36 (peptide-based prodrug with the linker Ala-Gly-Leu-Ala, SEQ ID NO 3, between a LecA-targeting galactoside and fluoroquinolone 2)
T1 sequence: AGLA

[2] = tested on: T2, LasB cleavable substrate Abz-Ala-Gly-Leu-Ala-Nba (SEQ ID NO 3, labelled)
T2 sequence: AGLA

[3] = molecular target: T3, LecA (Pseudomonas aeruginosa, UniProt Q05097); assay: Surface plasmon resonance with LecA; format: binding
T3 construct: made in house
Description: Surface plasmon resonance experiments were performed on a BIACORE X100 instrument (GE Healthcare) at 25° C. as described by Zahorska et. al. 2020. Averages and standard deviations were calculated from three independent experiments.

[4] = Stability in aqueous buffer; format: physicochemical; conditions: Tris buffer (TBS/Ca2+), after 24 h
[5] = molecular target: T3, LecA; assay: Direct titration of fluorescent ligand with LecA in fluorescence polarization assay; format: binding
[6] = molecular target: T3, LecA; assay: Isothermal titration calorimetry with LecA; format: binding
Description: Isothermal titration calorimetry was performed on an iTC200 (Malvern Panalytical) and the data were analyzed using Microcal Origin software (Malvern Panalytical). LecA in the cell was titrated with ligand in TBS/Ca^2+ buffer supplemented with 5% DMSO at 25° C. Steep titration slopes were the result of high amount of protein present and the high binding affinity of the ligand (high ‘value of c’).
Isothermal titration calorimetry was performed on an iTC200 (Malvern Panalytical) and the data were analyzed using Microcal Origin software (Malvern Panalytical).

[7] = molecular target: T4, MMP-2 (Homo sapiens, UniProt P08253); assay: FRET-based cleavage assay with MMP-2; format: biochemical; conditions: serial dilution of activated MMP-2
T4 sequence (P08253 110-660): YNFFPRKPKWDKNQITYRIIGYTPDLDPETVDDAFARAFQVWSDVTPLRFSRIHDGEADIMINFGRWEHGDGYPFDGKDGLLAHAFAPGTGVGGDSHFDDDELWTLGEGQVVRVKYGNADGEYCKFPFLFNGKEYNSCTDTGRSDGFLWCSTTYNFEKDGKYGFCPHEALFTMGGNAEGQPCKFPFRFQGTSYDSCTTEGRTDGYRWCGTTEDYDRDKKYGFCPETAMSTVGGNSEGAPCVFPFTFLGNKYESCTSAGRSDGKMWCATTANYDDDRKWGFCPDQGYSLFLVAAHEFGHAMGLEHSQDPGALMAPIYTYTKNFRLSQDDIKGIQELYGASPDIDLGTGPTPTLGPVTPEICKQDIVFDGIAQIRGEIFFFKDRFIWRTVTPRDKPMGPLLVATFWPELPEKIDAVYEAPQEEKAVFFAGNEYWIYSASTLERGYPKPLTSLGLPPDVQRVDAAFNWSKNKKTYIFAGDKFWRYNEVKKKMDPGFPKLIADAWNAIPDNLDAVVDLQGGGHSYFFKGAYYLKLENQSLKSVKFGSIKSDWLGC
Description: MMP-2 (50 μL, 0.2 μg/mL in 20 mM tris pH 7.5, 8 mM CaCl2, 119 mM NaCl, 20% Glycerol, 0.05% Brij 35, Cat #SAE0174-50UG, Sigma-Aldrich) was activated with 1 mM APMA (from 100 mM DMSO stock, Cat #AS—71158, AnaSpec) for 1 h at 37° C. Then, dilution series of the activated MMP-2 and of PA14-filtrate were prepared in PBS. SensoLyte 520 generic MMP substrate (Cat #AS—71158, AnaSpec) was diluted 1:100 in PBS. […] 10 μL dilution series was mixed with 10 μL MMP substrate or LasB substrate and fluorescence (λex=490 mn, λem=520 nm and λex=320 mn, λem=420 nm, for MMP substrate and LasB substrate, respectively) was recorded for 10 min (10 s interval).

[8] = tested on: P. aeruginosa PAO1 biofilms; assay: P. aeruginosa biofilm staining in the flow cell; format: cell-based, Pseudomonas aeruginosa PAO1; conditions: 500 nM in medium, 4 h accumulation, flow 3 mL/h
Description: Colonies of PAO1 wt labelled with the red fluorescent protein mCherry (pMP7605) were picked from a LB agar plate and transferred to 10 mL LB medium with Gentamicin 60 μg/ml to start an overnight culture. Incubation was done at 37° C. and 180 rpm overnight. A fresh culture was inoculated to an OD600nm of 0.02 (10 mL LB with Gentamicin 60 μg/mL) and incubated until the exponential growth phase was reached (OD600nm of 0.4 to 0.8). The bacterial suspension was diluted again to an OD600m of 0.1 and 300 μL were injected into a six-channel μ-slide (ibidi, Germany). The settling time was 30 min. The flow of 1:5 diluted LB medium with Gentamicin 60 μg/ml was 3 mL/h. The biofilms were grown in a heat system (ibidi, Germany) at 30° C. and for 48 h.
After 48 h of biofilm growth, aggregates were stained by supplementing the divalent LecA ligand 57 and Fluorescein disodium salt 58 as a control to the medium. The final concentration of the supplements in the medium was 500 nM and constantly accumulated within the biofilm for 4 h by a flow rate of 3 mL/h. Washing was performed for 30 min with LB 1:5 diluted with Gentamicin 60 μg/mL.
Analysis was done by using a fluorescence microscope Leica DMi8. […] The green fluorescein signal was detected by an excitation wavelength of 460 to 500 nm and an emission wavelength of 512 to 542 nm. Snapshots were normalized by using the Fiji software. […]

[9] = Cleavage / stability in PA14-filtrate without human blood plasma; format: in vitro ADME, Pseudomonas aeruginosa PA14; conditions: up to 24 h
Description: P. aeruginosa PA14 was streaked on LB-agar plates (1% agar) from glycerol stocks and incubated at 37° C. overnight. 2-5 colonies were picked and dispersed in 10 mL LB (10 g/L trypton, 10 g/L NaCl, 5 g/L yeast extracts). This dispersion was incubated overnight at 37° C., 180 rpm under high humidity. The culture was centrifuged (4000 ref, room temperature, 10 min) and the supernatant was filtered (0.22 m pore size). […]
A 1 mM solution of the studied compound was prepared in PBS (150 mM NaCl, 2.6 mM KCl, 1.4 mM KH2PO4, 10 mM Na2HPO4, pH 7.4) with 20% DMSO. 50 μL of this solution was diluted in 950 μL matrix or human plasma (spiked with 10% LB) on ice. After brief vortex, 100 μL were immediately treated with 100 μL ice-cold MeCN (spiked with […] diphenhydramine as internal standard). The rest of the solution was incubated at 37° C. and 500 rpm in an eppendorf thermomixer. At various time points (30, 60, 120, 180 min), 100 L sample were taken and treated as described above. […] The AUC of the parent drug and its cleavage products and the internal standard was quantified using Compass QuantAnalysis quantification software. The relative AUC was calculated by AUC (compound)/AUC(ISTD). Procaine was used as a positive control as it readily degrades in human plasma.

T3 sequence (Q05097 whole entry): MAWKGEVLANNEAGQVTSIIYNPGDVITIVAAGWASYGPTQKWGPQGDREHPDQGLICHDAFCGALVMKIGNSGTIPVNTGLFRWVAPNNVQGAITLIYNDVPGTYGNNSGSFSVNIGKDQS

For “matrix-metalloprotease 2 (MMP-2), activated with APMA”, the “Stability of prodrug 36 in presence of activated MMP-2, monitored by HPLC-MS” value [1] was “No detectable metabolism was observed after 20 min or 3 d at 37 °C” and the “turnover of the LasB-substrate in a FRET-based cleavage assay (serial dilution of activated MMP-2)” value [2] was “Only a very weak turnover of the LasB-substrate was observed in a FRET-based cleavage assay at very high concentrations (>50 ng/mL final) of MMP-2”.
With `O=C(CCc1ccc(O[C@@H]2OC(CO)[C@H](O)C(O)C2O)cc1)Nc1ccc(CN(CCc2cn(CCOCCOCCOCCNC(=S)Nc3ccc4c(c3)C(=O)OC43c4ccc(O)cc4Oc4cc(O)ccc43)nn2)Cc2ccc(NC(=O)CCc3ccc(O[C@@H]4OC(CO)[C@H](O)C(O)C4O)cc3)cc2)cc1` (some centres unmarked) [Compound 57] the Kd [3] was 19.3 ± 10.5 nM, the degradation in buffer [4] was “did not show any degradation” and the Kd [5] was 1050 nM. The Kd ([6]; ITC, TBS/Ca2+ buffer, 5% DMSO, 25° C.) was “High affinity”.
For “Abz-Ala-Gly-Leu-Ala-Nba ([2Abz]AGLA-Nba) [LasB-substrate]”, the “cleavage of FRET substrate by MMP-2” value [7] was “rather stable; also recorded: very weak turnover”.
In the case of `C#CCCN(Cc1ccc(NC(=O)CCc2ccc(O[C@@H]3OC(CO)[C@H](O)C(O)C3O)cc2)cc1)Cc1ccc(NC(=O)CCc2ccc(O[C@@H]3OC(CO)[C@H](O)C(O)C3O)cc2)cc1` (some centres unmarked) [Compound 55], the Kd [3] is reported as 9.9 ± 0.5 nM and the Kd [6] is reported as 47.2 ± 11.3 nM.
With `CC1=CC(C)=[N+]2C1=Cc1ccc(CCC(=O)NCCCN=[N+]=[N-])n1[B-]2(F)F` [BDP FL azide] the biofilm staining [8] was “did not show any enrichment”.
With `CC(C)C[C@H](N)C(=O)N[C@@H](C)C(=O)N[C@H]1CCN(c2cc3c(cc2F)c(=O)c(C(=O)O)cn3C2CC2)C1` [Compound 35, 7-((S)-3-((S)-2-((S)-2-amino-4-methylpentanamido)propanamido)pyrrolidin-1-vl)-1-cyclopropyl-6-fluoro-4-oxo-1,4-dihydroquinoline-3-carboxylic acid] the “release of free drug from dipeptide-conjugates” value [9] was “very slow; also recorded: only slowly released their antibiotic cargo”.
